US6534073B2, “Skin care cosmetic compositions containing carboxymethylates of branched alcohols and/or ethoxylates thereof” (Unilever Home & Personal Care USA division of Conopco, Inc., priority 2000, dated 2003)
Like-named read-outs stand apart in the source and are kept apart here. Marks after values point to notes of the source that are not given here.

Tests used:
[1] = test system: human sebocytes; assay: Inhibition of sebocyte lipogenesis (14C-acetate incorporation); assay type: cell-based; details: for inhibition of lipogenesis (result in words): summary of Tables 2 and 3
Protocol: This example provided data on inhibition of sebocyte lipogenesis.
Secondary cultures of human sebocytes obtained from an adult […] were grown in 48-well tissue culture plates (Costar Corp.; Cambridge, Mass.) or 96-well tissue culture plates (Packard Co.; Meriden, Conn.) until confluent. Sebocyte growth medium consisted of Clonetics Keratinocyte Basal Medium (KBM) 5 supplemented with 14 μg/ml bovine pituitary extract, 0.4 μg/ml hydrocortisone, 5 μg/ml insulin, 10 ng/ml epidermal growth factor, 1.2×10^−10 M cholera toxin, 100 units/ml penicillin, and 100 μg/ml streptomycin. All cultures were incubated at 37° C. in the presence of 7.5% CO2. Medium was changed three times per week.
On the day of experimentation, the growth medium was removed and the sebocytes washed three times with sterile Dulbecco's Modified Eagle Medium (DMEM; phenol red free). Fresh DMEM was added to each sample (duplicates, triplicates, or quadruplicates depending on the experiment) with 5 μL of test agent solubilized in ethanol or sterile, distilled water either alone or in the presence of one or 10 μM of retinol. Controls consisted of addition of ethanol alone, retinol alone or phenol red, which has estrogen-like activity and was included as a positive control.
Each plate was returned to the incubator for 20 hours followed by the addition of ^14C-acetate buffer (5 mM final concentration, 56 mCi/mmol specific activity). Sebocytes were returned to the incubator for four hours after which each culture was rinsed three times with phosphate buffered saline to remove unbound label. Radioactive label remaining in the sebocytes was harvested and counted using a Beckman scintillation counter.

[2] = test system: procollagen I production by neonatal human dermal fibroblasts; assay: Procollagen I production by fibroblasts (slot blot, densitometry); assay type: cell-based; details: for Average OD Reading / Fold increase Over Control: Table 4; for Average OD Reading: procollagen I densitometer reading, control 0.783; for Fold increase Over Control / % Increase (+) or % decrease (−) over control: procollagen I; for % Increase (+) or % decrease (−) over control: positive control, concentration not given
Protocol: This example measured production of procollagen I by fibroblasts in response to treatment with various straight chain and branched alcohols alone.
Neonatal human dermal fibroblasts were purchased from Clonetics Corp., San Diego, Calif. All materials for cell culture were purchased from Life Technologies, N.Y. (and used in passages 5-10). Cells were seeded at a density of approximately 10,000/well in the inner 48 wells of a 96-well plate in a medium containing DMEM (Dulbecco's Modified Eagle's Medium), high-glucose supplemented with 2 mM L-glutamine, 10% fetal bovine serum, and antibiotic and antimycotic solutions. Cells were then grown to confluence for 2 days. At confluence, the medium was removed and cells were washed with serum-free DMEM, and each well dosed with 200 μl of a solution of a test compound in serum-free DMEM. Each dosing was replicated in a total of six wells. […] After 24 hours, the test compound solution or the control solution was removed and cells redosed with 100 μl of a solution of a test compound in serum-free DMEM.
Nitrocellulose membrane and 3 sheets of filter paper were soaked in TRIS buffered saline (TBS, pH 7.3.). BioRad slot blot apparatus (BioRad Labs, CA) was set up with 3 sheets filter paper on bottom, membrane on top, and tightened. […] TBS was added per well. Vacuum was used to suck TBS through membrane. The test compound solution or control was vortexed, then 100 μl was loaded per well and gravity filtered. Procollagen from the test solution was bound to the membrane at this point in the procedure. Membrane was removed from the apparatus, excess cut off, and bottom right corner notched for orientation. The membrane was placed in blocking solution (5% milk powder in Dulbecco's phosphate buffered saline) overnight at 4° C., with shaking. The membrane was then incubated for 1.5 hrs at room temperature with 1.5 mL Rat Anti-Human Procollagen Amino-Terminal Ab (Chemicon MAB1912) in TBS with 0.1% BSA (Bovine Serum Albumin) (ratio of antibody to buffer/BSA was 1:100) in a sealed bag with shaking. The membrane was then removed; washed 3 times for 5 minutes in TBS/0.1% Tween. The membrane was then incubated for 1 hour at room temperature in 2 mL of Biotinylated Anti-Rat Peroxidase-Conjugated Ab (Vector Labs) in TBS with 0.1% BSA (ratio of antibody to buffer/BSA was 1:1000) in a sealed bag with shaking. The membrane was then stained using the following solution:
12.5 mg 3-amino 9-ethyl carbazole (Sigma)
3.125 (approximately) mL DMF (N,N-dimethylformamide, from Sigma)
The membrane was stained until color developed and the reaction stopped with 2 washes for 10 minutes in tap water. The blot was scanned on a Bio-Rad GS700 Image Analysis densitometer. Percent change from control was calculated from densitometer readings as follows: [(Reading for test compound-Reading for control)/Reading for control]*100. Control has a reading of 100%. Statistical significance (p value) was calculated using student's t-test.
TGF-B is a positive control, ensuring the integrity of the assay: transforming growth factor beta is known to increase procollagen I in fibroblasts.
This example measured production of procollagen I by fibroblasts in response to treatment with various test compounds.
The experiment was conducted as described in Example 1 above. Fold increase was calculated as a ratio of densitometer reading for cells treated with a test compound over control.

[3] = Homo sapiens, Table 2, 14C-acetate label in sebocytes, read-out: % of Control
[4] = Homo sapiens, Table 3, 14C-acetate label in sebocytes, read-out: % of Control
[5] = Table 2, 14C-acetate label in sebocytes, 1 μM
[6] = Table 2, 14C-acetate label in sebocytes, 10 μM
[7] = Table 2, 14C-acetate label in sebocytes, 100 μM

O=S1(=O)OC(c2ccc(O)cc2)(c2ccc(O)cc2)c2ccccc21 [Phenol Red, reference compound]
activity at 28 µM [1, 3]: 56.5%
activity at 280 µM [1, 3]: 43.3%
activity at 28 µM [1, 4]: 92%
activity at 280 µM [1, 4]: 61.7%

CC1=C(/C=C/C(C)=C/C=C/C(C)=C/CO)C(C)(C)CCC1 [Retinol, reference compound]
activity at 1 µM ([1]; Homo sapiens, Table 3, 14C-acetate label in sebocytes, 1 μM, read-out: % of Control): 91.8%
activity at 10 µM ([1]; Homo sapiens, Table 3, 14C-acetate label in sebocytes, 10 μM, read-out: % of Control): 106%

Iso-tridecyl carboxymethylate (sodium salt)
% of Control [1, 5]: 81.5* %
% of Control [1, 6]: 49.6* %
% of Control [1, 7]: 1.2* %
% of Control ([1]; Table 3, 14C-acetate label in sebocytes, 1 μM): 75.8* %
% of Control ([1]; Table 3, 14C-acetate label in sebocytes, 10 μM): 66.0* %
inhibition of lipogenesis (result in words) [1]: improved inhibition of lipogenesis

TGF-B: transforming growth factor beta, positive control known to increase procollagen I in fibroblasts [reference compound]
Average OD Reading ([2]; 0.001%): 1.348
Fold increase Over Control ([2]; 0.001%): 1.72* Fold
% Increase (+) or % decrease (−) over control ([2]; Table 1 Experiment 1): +50* %
% Increase (+) or % decrease (−) over control ([2]; Table 1 Experiment 2): +140* %

iso-tridecyl carboxymethylate
% of Control [1, 5]: 80.0* %
% of Control [1, 6]: 58.2* %
% of Control [1, 7]: 1.4* %
inhibition of lipogenesis (result in words) [1]: enhanced inhibition of lipogenesis at all tested concentrations
Average OD Reading ([2]; 0.0001%): 0.777
Average OD Reading ([2]; 0.001%): 1.295
Fold increase Over Control ([2]; 0.0001%): 0.99 Fold
Fold increase Over Control ([2]; 0.001%): 1.65* Fold
collagen synthesis by fibroblasts (result in words) ([2]; summary of Tables 1 and 4): increased collagen production
